Experimental data as given in patent US20140322278A1, “Modulation of Tissue Transglutaminase Activation in Disease” (The Board of Trustees of the Leland Stanford Junior …, priority 2011, published 2014).

B1: recombinant human Trx: reduced human thioredoxin, overexpressed in and purified from recombinant E. coli (protein, UniProt P10599 2-105, looked up)
Thioredoxin: VKQIESKTAFQEALDAAGDKLVVVDFSATWCGPCKMIKPFFHSLSEKYSNVIFLEVDVDDCQDVASECEVKCMPTFQFFKKGQKVGEFSGANKEKLEATINELV
modifications: reduced
notes: reduced human thioredoxin, overexpressed in and purified from recombinant E. coli

What was measured:
[1] = tested on: TG2 activation in WI-38 monolayers; test: Thioredoxin-induced TG2 activation in WI-38 monolayers, 5BP incorporation ELISA; format: cell-based, human
Method: (§1) FIG. 7. Dose dependence of TG2 activation in response to recombinant human thioredoxin treatments of T84 and WI-38 monolayers measured in a quantitative enzyme linked immunosorbent type assay. Cellular monolayers were treated for 3 hrs at 0-10 μM thioredoxin with or without TG2 inhibition using 25 μM ERW1041E or with or without using 0-50 μM thioredoxin inhibitor PX-12. TG2 activation was quantified by the amount of 5BP crosslinked to native proteins in the extracellular matrix of cultured monolayers as measured by tetramethylbenzidine turnover via streptavidin-HRP labeling. (A) and (B) Illustrate the dependence of 5BP incorporation on thioredoxin exposure concentration in T84 and WI-38 cells, respectively. […] (C) and (D) Illustrate the dependence of 5BP incorporation on the ability of thioredoxin to activate TG2. TG2 activation was highest for control experiments with 0 μM PX-12. The amount of PX-12 required to reduce the 5BP incorporation in half at saturating concentrations of 3 μM thioredoxin in T84 and WI-38 cultures was 11 μM and 5 μM PX-12, respectively. […] Data reported as mean+/−standard deviation.
(§2) To test whether recombinant human thioredoxin could directly activate TG2 in cell culture, we used T84 and WI-38 monolayers in similar assays as described herein. T84 and WI-38 cells were grown into mature monolayers at which point varying amounts of pre-reduced thioredoxin were added to the culture medium along with 5BP and/or small molecule inhibitors, such as the TG2 inhibitor, ERW1041E, or the thioredoxin inhibitor, PX-12. 5BP incorporated into the extracellular matrix of cultured monolayers via activated TG2 was then quantified.

[2] = cited from earlier work
[3] = tested on: TG2 activation in T84 monolayers; test: Thioredoxin-induced TG2 activation in T84 monolayers, 5BP incorporation ELISA; format: cell-based, human
Method: as §1, §2

human thioredoxin = target: T1, human thioredoxin (Homo sapiens, UniProt P10599); test: Inhibition of human thioredoxin by disulfide analogs of PX-12 (kinh/Ki); format: biochemical
T1 construct: made in house; host or cells: E. coli
T1 sequence (P10599 1-105): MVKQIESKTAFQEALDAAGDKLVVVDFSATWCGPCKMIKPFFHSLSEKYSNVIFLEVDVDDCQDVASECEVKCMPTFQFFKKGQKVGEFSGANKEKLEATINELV

Trx = target: T2, Trx (Homo sapiens, UniProt P10599); test: Cell-free assay for Trx-mediated activation of oxidized TG2; format: biochemical; conditions: dose-dependent; 100 μM PX-12
T2 construct: made in house; host or cells: E. coli (Trx)
T2 sequence (P10599 1-105): T1 sequence (P10599 1-105)
Method: (§3) To test our hypothesis, we measured the kinetics of Trx-mediated activation of oxidized TG2. Reduced forms of Trx from E. coli and human were prepared by overexpression in and purification from recombinant E. coli. Dithiothreitol (DTT) was used as a reference small molecule reducing agent. […] We therefore quantified the specificity of human Trx for human oxidized TG2 by measuring the Michaelis-Menten parameters for Trx-mediated reduction of oxidized TG2. Insulin, a well-characterized extracellular substrate of Trx, was used as a reference, and human thioredoxin reductase was used as a catalyst to achieve turnover under steady-state conditions. […] Based on these parameters, one can estimate that as little as 2.5 nM Trx in the extracellular matrix should be able to activate 10% of the local oxidized TG2 within 30 min.
The small molecule PX-12 (1,1-methylpropyl 2-imidazolyl disulfide) inhibits Trx by oxidizing its active site Cys.

[4] = Reactivity of disulfide inhibitors towards dithiothreitol
Insulin = test: Kinetics of Trx-mediated reduction of insulin (reference substrate); format: biochemical; conditions: human thioredoxin reductase as catalyst, steady state
Method: as §3

[5] = Homo sapiens, saturating 3 μM thioredoxin, read-out: amount of PX-12 required to reduce the 5BP incorporation in half

Molecule | IC50 [1, 5] | 5BP incorporation in response to thioredoxin ([1]; PX-12 0-50 μM) | adverse effects in humans ([2]; high doses administered to humans) | toxicity due to the 2-butanethiol leaving group ([2]; previous human clinical studies) | IC50 [3, 5] | 5BP incorporation in response to thioredoxin ([3]; PX-12 0-50 μM) | Trx kinh/Ki (human thioredoxin; human thioredoxin, bimolecular parameter estimating potency) | Trx/DTT (human thioredoxin; ratio of reactivity towards Trx relative to DTT (selectivity)) | Trx-mediated activation of oxidized TG2 (Trx) | DTT k [4] | Km (Insulin)
CCC(C)SSc1ncc[nH]1 (centres unmarked) [compound 1, 1-methylpropyl 2-imidazolyl disulfide] | 5 µM | quantitatively reduced | without any serious adverse effects | dose-limiting toxicity | 11 µM | quantitatively reduced | 2670 M⁻¹ s⁻¹ | 15 | complete inactivation | 180 M⁻¹ s⁻¹ | 
B1 |  |  |  |  |  |  |  |  |  |  | 30 µM
